# Source: patent publication US20110190253A1, “METHOD FOR TREATING TUBERCULOSIS” (priority 2008, published 2011)
# What was measured:
# [1] = tested on: M. tuberculosis H37Rv; assay: minimum inhibitory concentration (MIC) in 7H9 medium at 37° C.; type: cell-based; conditions: for effect of addition of clavulanate on the MIC value: absence vs presence of 2.5 μg ml^−1 clavulanate, data not shown
# [2] = tested on: M. tuberculosis in viable but nonreplicative (NRP) state; assay: Wayne model, nonreplicative (NRP2) cultures, viability by intracellular ATP and CFUs; type: cell-based; conditions: for reduction of viability (intracellular ATP, CFUs): combination with clavulanate, anaerobic chamber, 1 week and 2 weeks, data not shown; for kill over a 2-week exposure time: meropenem in combination with clavulanate, metronidazole as control compound
# [3] = tested on: M. tuberculosis Erdman strain; assay: broth microdilution in 7H9 broth, 96 well plates, M. tuberculosis growth after 1 week of incubation; type: cell-based; conditions: one week of incubation
# [4] = target: BlaC (Mycobacterium tuberculosis, UniProt P9WKD3); assay: rate of hydrolysis by BlaC; type: biochemical, M. tuberculosis
# [5] = tested on: M. tuberculosis Erdman strain; assay: MIC against Erdman strain; type: cell-based; conditions: Mycobacterium tuberculosis, read-out: MIC value
# [6] = at any concentration of clavulanate (0.0.5, 1 and 2 μg/ml)
# Chain of BlaC (P9WKD3 35-307): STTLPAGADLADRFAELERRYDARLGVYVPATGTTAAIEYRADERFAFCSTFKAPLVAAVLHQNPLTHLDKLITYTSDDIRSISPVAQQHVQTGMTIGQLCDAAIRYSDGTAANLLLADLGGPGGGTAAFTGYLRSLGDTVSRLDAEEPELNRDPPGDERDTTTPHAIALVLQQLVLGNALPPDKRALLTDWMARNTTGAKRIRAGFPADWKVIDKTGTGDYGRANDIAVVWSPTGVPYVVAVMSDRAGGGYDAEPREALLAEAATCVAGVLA
smiles,measurement,setting,value
CC1(C)S[C@@H]2[C@H](NC(=O)[C@H](N)c3ccc(O)cc3)C(=O)N2[C@H]1C(=O)O [amoxicillin],effect of addition of clavulanate on the MIC value,[1],only a modest effect
same,"reduction of viability (intracellular ATP, CFUs)",[2],effective in reducing viability
same,inhibition of M. tuberculosis growth,[3]; 4 μg/ml of amoxicillin and 1-2 μg/ml clavulanate,Modest inhibition
CC1(C)S[C@@H]2[C@H](NC(=O)[C@H](N)c3ccccc3)C(=O)N2[C@H]1C(=O)O [ampicillin],effect of addition of clavulanate on the MIC value,[1],only a modest effect
CC(C)(O/N=C(\C(=O)N[C@@H]1C(=O)N2C(C(=O)[O-])=C(C[n+]3ccccc3)CS[C@H]12)c1csc(N)n1)C(=O)O [ceftazidime],inhibition of M. tuberculosis growth,[3]; [6],no inhibition
CO/N=C(\C(=O)N[C@@H]1C(=O)N2C(C(=O)O)=C(COC(N)=O)CS[C@H]12)c1ccco1 [cefuroxime],"reduction of viability (intracellular ATP, CFUs)",[2],effective in reducing viability
same,inhibition of M. tuberculosis growth,[3]; 2 μg/ml cefuroxime and 2 μg/ml clavulanate,Modest inhibition
C[C@@H](O)[C@H]1C(=O)N2C(C(=O)O)=C(S[C@@H]3CN[C@H](C(=O)N(C)C)C3)[C@H](C)[C@H]12 [meropenem],rate of hydrolysis by BlaC,[4],low
same,MIC,[5],≤ 1 µg/mL
same,MIC value in the presence of clavulanate,"[1]; 7H9 medium, 37° C., 2.5 μg ml^−1 clavulanate",0.32 µg/mL
same,MIC,"[1]; Mycobacterium tuberculosis, with clavulanate, as restated",≤ 1 µg/mL
same,"reduction of viability (intracellular ATP, CFUs)",[2],more pronounced
same,kill over a 2-week exposure time,[2],more than a log kill
same,M. tuberculosis growth,[3]; 1 μg/ml meropenem in combination with 1 μg/ml clavulanate,No M. tuberculosis growth
Cc1ncc([N+](=O)[O-])n1CCO [metronidazole],kill over a 2-week exposure time,[2],comparable
CCN1CCN(C(=O)N[C@@H](C(=O)N[C@@H]2C(=O)N3[C@@H]2SC(C)(C)[C@@H]3C(=O)O)c2ccccc2)C(=O)C1=O [piperacillin],inhibition of M. tuberculosis growth,[3]; [6],no inhibition
